Experimental data reported in publication PMC10451377, “Rationally Designed Pyrimidine Compounds: Promising Novel Antibiotics for the Treatment of Staphylococcus aureus-Associated Bovine Mastitis” (Antibiotics, 2023).
Values after ≈ are worked out from the molar mass of the structure shown. Where two headings read alike, the source gives them in different places.

Legend:
[1] = test system: Staphylococcus aureus CMRSA-10; test: Broth microdilution MIC; type: cell-based
From the text: (§1) Reference strains for this study (S. aureus ATCC 29213, ATCC 29740 [bovine mastitis strain Newbould], S. epidermidis ATCC 12228, E. coli ATCC 35695, E. faecalis ATCC 29212) were obtained from the American Type Culture Collection (ATCC, Rockville, MD). S. aureus strains CMRSA-10 and CMRSA-2 were obtained from the Laboratoire de santé publique du Québec (LSPQ, Sainte-Anne-de-Bellevue, QC, Canada) and are Canadian CA-MRSA USA-300 and HA-MRSA USA-100 clones, respectively. The strain E. coli imp4213 (lptD), used as a control in MIC assays, is a derivative of E. coli ATCC 35695 (E. coli MC4100) with an increased membrane permeability. […] Other MRSA strains used in this study are clinical isolates of human origin obtained from the microbiology laboratory of the Centre Hospitalier Universitaire de Sherbrooke (CHUS, Sherbrooke, QC, Canada). Bovine mastitis strains (S. aureus, S. chromogenes, S. haemolyticus, S. hominis, S. simulans) were obtained from the Canadian Bovine Mastitis and Milk Quality Research Network (CBRQMN, St-Hyacinthe, QC, Canada). Among these strains, S. aureus 2117 is a high producer of biofilm and was used in the biofilm-eradication assay. S. epidermidis isolates were provided by Centre de Recherche en Infectiologie (CRI) de Québec (Québec, QC, Canada).

[2] = test system: Staphylococcus aureus CMRSA-2; test: Broth microdilution MIC; type: cell-based
From the text: as §1

[3] = test system: Bacillus subtilis xpt-lacZ; test: Broth microdilution MIC; type: cell-based; conditions: B. subtilis xpt-lacZ, read-out: Broth Microdilution MIC
[4] = test system: Bovine S. aureus; test: Susceptibility of isolate panel (MIC50, MIC90, range); type: cell-based, Staphylococcus aureus; conditions: Bovine S. aureus, 48 isolates, CAMHB with 2% NaCl
From the text: as §1
(§2) The antibacterial activity of the most promising compound, PC206, was also evaluated against larger groups of clinical isolates of human and animal origin. The MIC50 and MIC90 values represented the concentrations of drug required to inhibit the growth of 50% and 90% of the bacterial strains tested, respectively.

[5] = test system: MRSA; test: as above; type: cell-based, Staphylococcus aureus; conditions: 42 isolates, CAMHB with 2% NaCl
From the text: as §1, §2

[6] = test system: S. haemolitycus; test: as above; type: cell-based, S. haemolyticus; conditions: Staphylococcus haemolyticus, S. haemolitycus, 10 isolates, CAMHB with 2% NaCl
From the text: as §1, §2

[7] = test system: S. chromogenes; test: as above; type: cell-based; conditions: S. chromogenes, 5 isolates, CAMHB with 2% NaCl
From the text: as §1, §2

[8] = test system: S. epidermidis; test: as above; type: cell-based; conditions: S. epidermidis, 10 isolates, CAMHB with 2% NaCl
From the text: as §1, §2

[9] = test system: S. hominis; test: as above; type: cell-based; conditions: Staphylococcus hominis, S. hominis, 10 isolates, CAMHB with 2% NaCl
From the text: as §1, §2

[10] = test system: S. simulans; test: as above; type: cell-based; conditions: S. simulans, 5 isolates, CAMHB with 2% NaCl
From the text: as §1, §2

[11] = test system: guanine riboswitch-lacZ fusion construct (xpt-lacZ); test: Riboswitch regulation assay (lacZ-gene reporter); type: cell-based, B. subtilis
From the text: The novel pyrimidine compounds, especially PC206, display specificity and potency against some staphylococci but not the other bacterial genus (Table 1 and Table 2). Because they are structurally derived from PC1 and PC2, these novel antibiotic candidates are expected to have the same mode of action. […] To verify this hypothesis, a strain of B. subtilis with a guanine riboswitch-lacZ fusion construct (named xpt-lacZ) integrated in its chromosome was exposed to these new antimicrobials. […] Therefore, it is an adequate reporter species. The metabolization of substrate ONPG into colored ONP was normalized by the bacterial suspension absorbance at 600 nm (Miller units) and relativized to the untreated condition.
β-galactosidase gene expression in the presence of the new pyrimidine analogs was studied, using an xpt-lacZ transcriptional fusion construct integrated in the genome of B. subtilis as previously described. Briefly, cultures were grown for 5 h at 35 °C in CAMHB, from an initial optical density of 0.05 at 600 nm (OD600), and then diluted 1:20 and in the presence of different concentrations of the compounds tested. Cultures were centrifuged for 10 min at 13,100 rpm, the supernatant was discarded, and pellets were suspended in a Z-buffer (NaH2PO4 40 mM, Na2HPO4 60 mM, MgSO4 1 mM, KCl 10 mM). Cultures OD600 were measured, and bacteria were then lysed with lysozyme (1 mg/mL) and β-mercaptoethanol 50 mM for 30 min. Lysates were centrifuged for 10 min at 13,100 rpm, and supernatants were incubated for 5 min at 30 °C with the substrate orthonitrophenyl-β-galactoside (ONPG; Sigma Aldrich). Reactions were stopped with Na2CO3 1M, supernatants OD420 were measured, and Miller units were calculated. A decrease in β-galactosidase activity indicated binding of the test compound to the riboswitch. Guanine and oxacillin were used as […] controls, respectively. The formula to measure Miller units is as follows: Millerunits=1000×OD420/t·v·OD600
Here, t represents the time of incubation with ONPG, and v represents the volume of the reaction.

[12] = test system: Staphylococcus aureus ATCC 29213; test: Broth microdilution MIC; conditions: ATCC29213, read-out: Broth Microdilution MIC
[13] = test system: Escherichia coli ΔlptD4213; test: microbe, parasite or virus in culture; type: cell-based; conditions: read-out: Broth Microdilution MIC
From the text: as §1

[14] = MTT assay; type: cell-based; conditions: human, HepG2 cells
[15] = MTT assay; type: cell-based; conditions: bovine, MAC-T cells, 24 h
[16] = LDH release assay; type: cell-based; conditions: human, HepG2 cells
[17] = LDH release assay; type: cell-based; conditions: bovine, MAC-T cells, 24 h
[18] = test system: Staphylococcus epidermidis ATCC 12228; test: Broth microdilution MIC; conditions: ATCC12228, read-out: Broth Microdilution MIC
[19] = test system: Enterococcus faecalis ATCC 29212; test: Broth microdilution MIC; conditions: ATCC29212, read-out: Broth Microdilution MIC
[20] = test system: Escherichia coli ATCC 35695; test: Broth microdilution MIC; conditions: ATCC35695, read-out: Broth Microdilution MIC
[21] = test system: all tested bacterial strains, including non-staphylococci strains; test: Broth microdilution MIC, summary over all strains tested; conditions: read-out: MIC against all tested bacterial strains
[22] = Staphylococcus aureus, read-out: MIC50
[23] = Staphylococcus aureus, read-out: MIC90

In the case of `Cc1onc(-c2ccccc2)c1C(=O)N[C@@H]1C(=O)N2[C@@H]1SC(C)(C)[C@@H]2C(=O)O` [OXA, oxacillin], the MIC ([1]; CMRSA10, S. aureus CMRSA-10, CAMHB supplemented with 2% NaCl, read-out: Broth Microdilution MIC) is reported as 64 µg/mL (≈ 159 µM), the MIC ([2]; CMRSA2, S. aureus CMRSA-2, CAMHB supplemented with 2% NaCl, read-out: Broth Microdilution MIC) is reported as over 64 µg/mL and the MIC [3] is reported as 0.25 µg/mL (≈ 0.623 µM). The “MIC Range” value [4] was 0.03 to 32 µg/mL, the MIC50 [4, 22] was 0.12 µg/mL (≈ 0.299 µM) and the MIC90 [4, 23] was 0.25 µg/mL (≈ 0.623 µM). The “MIC Range” value [5] was 4 to 64 µg/mL, the MIC50 [5, 22] was 32 µg/mL (≈ 79.7 µM) and the MIC90 [5, 23] was 64 µg/mL (≈ 159 µM). For the same molecule, the MIC50 ([6]; read-out: MIC50) was over 16 µg/mL, the MIC90 ([6]; read-out: MIC90) was over 16 µg/mL and the “MIC Range” value [7] was 0.06 to 0.12 µg/mL. The MIC50 ([7]; read-out: MIC50) was 0.12 µg/mL (≈ 0.299 µM), the MIC90 ([7]; read-out: MIC90) was 0.12 µg/mL (≈ 0.299 µM) and the “MIC Range” value [8] was 0.03 to 16 µg/mL. The MIC50 ([8]; Staphylococcus epidermidis, read-out: MIC50) was 2 µg/mL (≈ 4.98 µM), the MIC90 ([8]; Staphylococcus epidermidis, read-out: MIC90) was over 16 µg/mL and the MIC50 ([9]; read-out: MIC50) was 1 µg/mL (≈ 2.49 µM). For the same molecule, the MIC90 ([9]; read-out: MIC90) was over 16 µg/mL, the “MIC Range” value [10] was 0.06 to 0.12 µg/mL and the MIC50 ([10]; Staphylococcus simulans, read-out: MIC50) was 0.06 µg/mL (≈ 0.149 µM). The MIC90 ([10]; Staphylococcus simulans, read-out: MIC90) was 0.12 µg/mL (≈ 0.299 µM), the “Effect on Miller units” value ([11]; concentrations below the MIC of 0.25 µg/mL) was “did not affect the expression of Miller units” and the MIC [12] was 0.25 µg/mL (≈ 0.623 µM).
`CCCNc1cc(N)nc(N)n1` [PC371] gave an MIC ([1]; CMRSA10, read-out: Broth Microdilution MIC) of over 128 µg/mL, an MIC ([2]; CMRSA2, read-out: Broth Microdilution MIC) of over 128 µg/mL and an MIC [13] of over 128 µg/mL. For the same molecule, the MIC [3] was over 128 µg/mL, the “Effect on Miller units” value ([11]; 512 and 1024 μg/mL, one experiment) was “did not have any effect on the reporter gene expression” and the CC50 at 24 h [14] was over 600 µM. It also gave a CC50 at 24 h [15] of over 600 µM, a CC50 at 24 h [16] of over 600 µM and a CC50 at 24 h [17] of over 600 µM. For the same molecule, the MIC [12] was over 128 µg/mL, the MIC [18] was over 128 µg/mL and the MIC [19] was over 128 µg/mL. For the same molecule, the MIC [20] was over 128 µg/mL and the MIC [21] was over 128 µg/mL.
